In PMC6789111, “Crossing the blood-brain-barrier with nanoligand drug carriers self-assembled from a phage display peptide” (Nature Communications, 2019):

Tests used:
Assay type in all cases: cell-based, human
[1] = tested on: RAGE; assay: RAGE silencing with siPORT Amine, Western blot; details: 28 nM siRNA with siPORT Amine
Method: (§1) hCMEC/D3 cells were transfected with anti-TfR siRNA [sense sequence ([NT]) and antisense sequence ([NT])] or anti-RAGE siRNA [sense sequence ([NT]) and antisense sequence [NT]] or control siRNA using siPORT Amine transfection agent, according to the manufacturer' Neofection protocol. Briefly, siPORT Amine transfection reagent (7 μL) was added to serum-free cell medium to a final volume of 100 μL and vortexed. […] The mixture was gently mixed and incubated at room temperature for 20 min. The transfection agent/siRNA complex was added to culture plates containing 2.3 × 10^5 hCMEC/D3 cells in 2.3 mL normal growth medium. The final concentration of siRNA was 28 nM. After 24 h incubation, the medium containing transfection agent/siRNA complex was removed and fresh growth medium was added. After 48 h post transfection, the level of target protein (TfR or RAGE) was determined by Western blotting. […] Uptake was quantified by measuring fluorescence using FACS. Transferrin receptor and RAGE expression level in human cells was determined by Western blot analysis. Briefly, cells were seeded in 75 cm^2-flasks and grown to reach 60-70% confluence. The cells were washed in ice-cold PBS three times and then scraped off the flask and collected by centrifugation. The pelleted cells were lysed for 10 min at room temperature on a shaker (900 rpm) following the ProteoJETTM Mammalian Cell Lysis Reagent protocol. Lysates were spun in a centrifuge at 18,000 × g for 15 min and the supernatant was collected. Equal protein aliquots were resolved by SDS-PAGE, transferred to nitrocellulose membranes using iBot Dry Blotting system (Invitrogen, CA, USA), immunoblotted with primary antibodies (mouse anti-human TfR antibody or rabbit polyclonal to mouse and human RAGE) (1;200 and 1:750, respectively) and detected with HRP-Goat-anti-mouse (or rabbit) IgG (H + L) secondary antibody (1:3000). Tubulin was immunoblotted with mouse anti-human-β-tubulin (1:200) and detected with HRP-Goat-anti-mouse IgG (H + L) secondary antibody (1:3000). These were followed by incubation with Novex® ECL Chemiluminescent Substrate Reagent Kit. The Bands were quantified with ImageJ 1.44p (http://imagej.nih.gov/ij/).

[2] = tested on: hCMEC/D3 cells; assay: Trypan Blue exclusion test; details: after receptor down regulation
[3] = tested on: TfR; assay: TfR silencing with siPORT Amine, Western blot; details: 28 nM siRNA with siPORT Amine
Method: as §1

[4] = tested on: TfR; assay: TfR silencing by peptide/siRNA nano-assemblies, Western blot
Method: Transferrin receptor and RAGE expression level in human cells was determined by Western blot analysis. Briefly, cells were seeded in 75 cm^2-flasks and grown to reach 60-70% confluence. The cells were washed in ice-cold PBS three times and then scraped off the flask and collected by centrifugation. The pelleted cells were lysed for 10 min at room temperature on a shaker (900 rpm) following the ProteoJETTM Mammalian Cell Lysis Reagent protocol. Lysates were spun in a centrifuge at 18,000 × g for 15 min and the supernatant was collected. Equal protein aliquots were resolved by SDS-PAGE, transferred to nitrocellulose membranes using iBot Dry Blotting system (Invitrogen, CA, USA), immunoblotted with primary antibodies (mouse anti-human TfR antibody or rabbit polyclonal to mouse and human RAGE) (1;200 and 1:750, respectively) and detected with HRP-Goat-anti-mouse (or rabbit) IgG (H + L) secondary antibody (1:3000). Tubulin was immunoblotted with mouse anti-human-β-tubulin (1:200) and detected with HRP-Goat-anti-mouse IgG (H + L) secondary antibody (1:3000). These were followed by incubation with Novex® ECL Chemiluminescent Substrate Reagent Kit. The Bands were quantified with ImageJ 1.44p (http://imagej.nih.gov/ij/). […] Next, the mixtures were diluted with saline to a final peptide concentration 5 μM for TEM studies. […] After 24 h incubation, the medium was replaced by fresh growth medium. After another 48 h of incubation, the level of the target protein was determined by Western blotting. The results were compared with parallel experiments containing nano-assemblies formed from FAM-CGY and an irrelevant siRNA as well as transfection procedures with complexes formed between siRNA and siPORT Amine transfection agent. Cy3-siRNA uptake was quantified by measuring median cell fluorescence using FACS.

[5] = tested on: claudin-5; assay: Claudin-5 silencing, Western blot; details: siRNA delivered with FAM-CGY (5 µM), 72 h after transfection
Method: Peptide/siRNA assemblies were formed by dropwise addition (80–240 nM range) of either Cy3-siRNA or functional anti-TfR siRNA or anti-Claudin-5 siRNA (with the sense and antisense sequences of 5′-[…]tt-3′ and 5′-[…]gc-3′) to 50 µM FAM-CGY in physiological saline and incubated for 30 min. Next, the mixtures were diluted with saline to a final peptide concentration 5 µM for TEM studies. In vitro uptake and silencing experiments were performed in hCMEC/D3 cells. Briefly, peptide/siRNA nano-assemblies (5 µM FAM-CGY and either 8 or 16 or 24 nM functional siRNA, final concentration) were added to 2.3 × 10^5 hCMEC/D3 cells. After 24 h incubation, the medium was replaced by fresh growth medium. After another 48 h of incubation, the level of the target protein was determined by Western blotting. The results were compared with parallel experiments containing nano-assemblies formed from FAM-CGY and an irrelevant siRNA as well as transfection procedures with complexes formed between siRNA and siPORT Amine transfection agent. Cy3-siRNA uptake was quantified by measuring median cell fluorescence using FACS.
Supplementary Fig. 20. […] FAM-CGY (5 µM final concentration)/CLDN5-specific siRNA assemblies effectively down regulates CLDN5 in hCMEC/D3 cells as determined by Western blotting. […] CLDN5 expression was measured 72 h after transfection. […]

[6] = hCMEC/D3, control siRNA = 100.00, replicate 1

Substance	RAGE expression level (%) [1, 6] [%]	RAGE expression level (%) ([1]; Ave.)	RAGE expression level (%) ([1]; replicate 2)	RAGE expression level (%) ([1]; replicate 3)	cell viability [2] [%]	TfR expression level (%) [3, 6] [%]	TfR expression level (%) ([3]; Ave.)	TfR expression level (%) ([3]; replicate 2)	TfR expression level (%) ([3]; replicate 3)	TfR expression leve (% of control) ([4]; 8 nM siRNA, presumably complexed with 5 µM FAM-CGY, hCMEC/D3, 24 h + 48 h, replicate 1) [%]	TfR expression leve (% of control) ([4]; 8 nM siRNA, Ave.) [%]	TfR expression leve (% of control) ([4]; 8 nM siRNA, replicate 2) [%]	TfR expression leve (% of control) ([4]; 8 nM siRNA, replicate 3) [%]	TfR expression leve (% of control) ([4]; 16 nM siRNA, Ave.) [%]	TfR expression leve (% of control) ([4]; 24 nM siRNA, presumably siRNA alone, Ave.) [%]	TfR expression leve (% of control) ([4]; 24 nM siRNA, presumably with siPORT, Ave.) [%]	claudin-5 expression [5]
RAGE siRNA: sense 5′-GGUGGAACCGUAACCUGAtt-3′, antisense 5′-UCAGGGUUACGGUUCCACCag-3′ (sense GGUGGAACCGUAACCUGATT; antisense UCAGGGUUACGGUUCCACCAG; chemistry not given here)	54.86	53.86	57.89	48.82	> 95												
TfR siRNA: sense 5′-GGUCAUCAGGAUUGCCUAAtt-3′, antisense 5′-UUAGGCAAUCCUGAUGACCga-3′ (sense GGUCAUCAGGAUUGCCUAATT; antisense UUAGGCAAUCCUGAUGACCGA; chemistry not given here)					> 95	30.26	34.58	32.56	40.91	75.56	70.89	65.03	72.08	54.45	90.00	38.58	
claudin-5-specific siRNA: sense 5′-CCUUAACAGACGGAAUGAAtt-3′, antisense 5′-UUCAUUCCGUCUGUUAAGGgc-3′ (sense CCUUAACAGACGGAAUGAATT; antisense UUCAUUCCGUCUGUUAAGGGC; chemistry not given here)																	downregulation of claudin-5
